How the values were obtained:
[1] = molecular target: Tyrosine-protein kinase ABL1 (Mus musculus) (UniProt P00520); assay: Inhibition of mouse Abl assessed as remaining enzyme activity at 0.01 uM
[2] = molecular target: Tyrosine-protein kinase ABL1 (Mus musculus) (UniProt P00520); assay: Inhibition of mouse Abl assessed as remaining enzyme activity at 0.1 uM
[3] = molecular target: Macrophage colony-stimulating factor 1 receptor (Homo sapiens) (UniProt P07333); assay: Inhibition of human FMS assessed as remaining enzyme activity at 1 uM
[4] = molecular target: Epithelial discoidin domain-containing receptor 1 (Homo sapiens) (UniProt Q08345); assay: Inhibition of human DDR1 assessed as remaining enzyme activity at 1 uM
[5] = molecular target: Vascular endothelial growth factor receptor 1 (Homo sapiens) (UniProt P17948); assay: Inhibition of human VEGFR1 assessed as remaining enzyme activity at 0.1 uM
Chain of Vascular endothelial growth factor receptor 1 (Homo sapiens) (P17948 whole entry): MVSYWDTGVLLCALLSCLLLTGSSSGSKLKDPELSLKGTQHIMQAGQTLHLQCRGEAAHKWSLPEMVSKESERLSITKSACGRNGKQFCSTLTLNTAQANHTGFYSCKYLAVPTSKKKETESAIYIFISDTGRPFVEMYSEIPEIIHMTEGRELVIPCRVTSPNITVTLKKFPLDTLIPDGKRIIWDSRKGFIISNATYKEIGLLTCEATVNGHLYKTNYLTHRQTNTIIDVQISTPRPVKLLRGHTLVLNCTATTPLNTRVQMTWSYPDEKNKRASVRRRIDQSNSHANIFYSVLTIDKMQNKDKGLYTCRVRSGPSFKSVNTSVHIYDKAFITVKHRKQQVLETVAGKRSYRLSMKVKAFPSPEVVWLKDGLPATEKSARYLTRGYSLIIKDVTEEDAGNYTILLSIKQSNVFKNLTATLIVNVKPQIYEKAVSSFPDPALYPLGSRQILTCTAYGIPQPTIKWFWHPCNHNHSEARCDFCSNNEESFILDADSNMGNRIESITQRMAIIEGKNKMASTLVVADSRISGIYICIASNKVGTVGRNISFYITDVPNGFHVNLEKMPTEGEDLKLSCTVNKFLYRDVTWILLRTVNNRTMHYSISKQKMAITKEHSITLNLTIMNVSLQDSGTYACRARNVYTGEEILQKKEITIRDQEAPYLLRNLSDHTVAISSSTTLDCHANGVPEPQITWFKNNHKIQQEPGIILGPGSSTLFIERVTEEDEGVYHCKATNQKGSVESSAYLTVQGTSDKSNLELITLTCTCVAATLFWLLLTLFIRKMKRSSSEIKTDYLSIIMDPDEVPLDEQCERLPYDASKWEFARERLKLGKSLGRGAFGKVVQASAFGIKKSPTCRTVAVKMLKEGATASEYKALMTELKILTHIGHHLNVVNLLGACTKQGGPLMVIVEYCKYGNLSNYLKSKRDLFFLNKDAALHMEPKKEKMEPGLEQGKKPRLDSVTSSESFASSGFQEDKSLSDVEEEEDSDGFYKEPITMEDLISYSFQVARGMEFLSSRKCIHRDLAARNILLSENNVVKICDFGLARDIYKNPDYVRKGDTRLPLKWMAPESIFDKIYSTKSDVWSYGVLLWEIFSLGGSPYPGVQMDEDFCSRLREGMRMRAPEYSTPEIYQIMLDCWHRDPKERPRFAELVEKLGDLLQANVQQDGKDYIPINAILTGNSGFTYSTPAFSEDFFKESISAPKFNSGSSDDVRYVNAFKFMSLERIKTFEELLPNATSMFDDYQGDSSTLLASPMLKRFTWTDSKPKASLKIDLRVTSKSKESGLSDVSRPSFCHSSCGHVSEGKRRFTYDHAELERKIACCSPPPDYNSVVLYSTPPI

[6] = molecular target: Tyrosine-protein kinase ABL1 (Homo sapiens) (UniProt P00519); assay: Inhibition of human ABL assessed as remaining enzyme activity at 1 uM
Chain of Tyrosine-protein kinase ABL1 (Homo sapiens) (P00519 whole entry): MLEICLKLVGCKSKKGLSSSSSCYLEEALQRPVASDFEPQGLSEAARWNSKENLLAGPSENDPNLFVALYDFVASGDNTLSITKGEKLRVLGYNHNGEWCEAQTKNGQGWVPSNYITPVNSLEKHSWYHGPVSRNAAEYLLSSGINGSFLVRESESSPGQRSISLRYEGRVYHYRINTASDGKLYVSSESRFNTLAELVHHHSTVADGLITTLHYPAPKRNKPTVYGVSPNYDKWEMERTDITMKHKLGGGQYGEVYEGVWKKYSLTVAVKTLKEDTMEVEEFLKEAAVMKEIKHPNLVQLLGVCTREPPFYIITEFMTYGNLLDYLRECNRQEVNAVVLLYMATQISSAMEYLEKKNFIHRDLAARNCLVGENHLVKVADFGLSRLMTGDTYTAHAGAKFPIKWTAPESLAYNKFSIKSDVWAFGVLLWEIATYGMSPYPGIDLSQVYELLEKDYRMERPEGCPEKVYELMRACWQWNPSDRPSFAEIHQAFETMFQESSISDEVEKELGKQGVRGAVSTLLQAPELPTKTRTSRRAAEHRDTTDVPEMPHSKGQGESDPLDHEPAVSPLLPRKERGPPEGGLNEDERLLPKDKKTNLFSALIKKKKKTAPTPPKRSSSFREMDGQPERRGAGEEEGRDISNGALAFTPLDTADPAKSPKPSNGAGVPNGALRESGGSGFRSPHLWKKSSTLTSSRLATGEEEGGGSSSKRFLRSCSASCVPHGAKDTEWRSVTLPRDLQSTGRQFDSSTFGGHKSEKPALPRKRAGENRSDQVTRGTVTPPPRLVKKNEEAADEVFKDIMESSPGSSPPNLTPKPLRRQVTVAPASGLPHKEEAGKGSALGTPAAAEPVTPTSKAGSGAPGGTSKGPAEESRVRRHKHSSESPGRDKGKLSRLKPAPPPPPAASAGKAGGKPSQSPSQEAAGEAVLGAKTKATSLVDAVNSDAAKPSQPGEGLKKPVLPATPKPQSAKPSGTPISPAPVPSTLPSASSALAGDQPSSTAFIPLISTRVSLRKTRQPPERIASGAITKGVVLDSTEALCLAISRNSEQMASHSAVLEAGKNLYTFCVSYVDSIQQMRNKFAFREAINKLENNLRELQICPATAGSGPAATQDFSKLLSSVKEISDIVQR

[7] = molecular target: T1, Muscle, skeletal receptor tyrosine-protein kinase (Homo sapiens) (UniProt O15146); assay: Inhibition of human MuSK assessed as remaining enzyme activity at 0.1 uM
T1 sequence (whole entry): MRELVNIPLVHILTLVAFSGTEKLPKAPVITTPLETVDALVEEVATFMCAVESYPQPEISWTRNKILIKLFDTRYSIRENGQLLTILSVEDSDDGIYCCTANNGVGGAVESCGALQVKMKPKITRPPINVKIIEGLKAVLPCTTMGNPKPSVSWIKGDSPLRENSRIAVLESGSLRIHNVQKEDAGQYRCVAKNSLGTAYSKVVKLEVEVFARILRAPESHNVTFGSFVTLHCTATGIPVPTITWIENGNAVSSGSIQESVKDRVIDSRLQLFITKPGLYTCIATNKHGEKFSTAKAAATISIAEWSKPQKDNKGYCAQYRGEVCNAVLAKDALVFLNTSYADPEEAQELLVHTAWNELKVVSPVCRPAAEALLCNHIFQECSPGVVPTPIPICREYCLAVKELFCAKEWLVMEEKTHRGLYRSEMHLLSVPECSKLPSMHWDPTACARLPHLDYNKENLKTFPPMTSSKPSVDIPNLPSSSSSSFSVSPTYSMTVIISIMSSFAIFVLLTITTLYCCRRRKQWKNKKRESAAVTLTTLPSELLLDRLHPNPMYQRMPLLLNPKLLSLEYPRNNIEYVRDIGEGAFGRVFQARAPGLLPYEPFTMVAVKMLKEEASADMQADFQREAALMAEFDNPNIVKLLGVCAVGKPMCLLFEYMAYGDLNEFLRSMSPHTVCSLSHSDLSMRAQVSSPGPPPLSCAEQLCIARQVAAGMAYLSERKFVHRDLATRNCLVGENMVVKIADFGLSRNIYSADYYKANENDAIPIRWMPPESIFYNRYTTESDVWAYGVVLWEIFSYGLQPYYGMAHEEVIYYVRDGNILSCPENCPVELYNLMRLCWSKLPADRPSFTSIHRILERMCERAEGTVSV

[8] = molecular target: Mitogen-activated protein kinase 14 (Homo sapiens) (UniProt Q16539); assay: Inhibition of human p38alpha assessed as remaining enzyme activity at 0.01 uM
Chain of Mitogen-activated protein kinase 14 (Homo sapiens) (Q16539 whole entry): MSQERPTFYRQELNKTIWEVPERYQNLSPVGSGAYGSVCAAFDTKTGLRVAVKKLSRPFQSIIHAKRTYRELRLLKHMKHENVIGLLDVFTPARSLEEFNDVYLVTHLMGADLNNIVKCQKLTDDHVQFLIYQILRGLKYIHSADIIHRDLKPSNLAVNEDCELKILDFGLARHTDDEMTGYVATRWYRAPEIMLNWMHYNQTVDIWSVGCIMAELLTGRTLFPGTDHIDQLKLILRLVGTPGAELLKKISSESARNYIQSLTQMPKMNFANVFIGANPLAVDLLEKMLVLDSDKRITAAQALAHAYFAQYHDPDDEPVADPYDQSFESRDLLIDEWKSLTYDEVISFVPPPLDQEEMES

[9] = molecular target: Vascular endothelial growth factor receptor 1 (Homo sapiens) (UniProt P17948); assay: Inhibition of human VEGFR1 assessed as remaining enzyme activity at 0.01 uM
[10] = molecular target: Tyrosine-protein kinase Lyn (Homo sapiens) (UniProt P07948); assay: Inhibition of human LYN assessed as remaining enzyme activity at 1 uM
[11] = molecular target: LIM domain kinase 1 (Homo sapiens) (UniProt P53667); assay: Inhibition of human LIMK1 assessed as remaining enzyme activity at 1 uM
[12] = molecular target: Homeodomain-interacting protein kinase 3 (Homo sapiens) (UniProt Q9H422); assay: Inhibition of human HIPK3 assessed as remaining enzyme activity at 0.1 uM
[13] = molecular target: Tyrosine-protein kinase FRK (Homo sapiens) (UniProt P42685); assay: Inhibition of human PTK5 assessed as remaining enzyme activity at 1 uM
Chain of Tyrosine-protein kinase FRK (Homo sapiens) (P42685 whole entry): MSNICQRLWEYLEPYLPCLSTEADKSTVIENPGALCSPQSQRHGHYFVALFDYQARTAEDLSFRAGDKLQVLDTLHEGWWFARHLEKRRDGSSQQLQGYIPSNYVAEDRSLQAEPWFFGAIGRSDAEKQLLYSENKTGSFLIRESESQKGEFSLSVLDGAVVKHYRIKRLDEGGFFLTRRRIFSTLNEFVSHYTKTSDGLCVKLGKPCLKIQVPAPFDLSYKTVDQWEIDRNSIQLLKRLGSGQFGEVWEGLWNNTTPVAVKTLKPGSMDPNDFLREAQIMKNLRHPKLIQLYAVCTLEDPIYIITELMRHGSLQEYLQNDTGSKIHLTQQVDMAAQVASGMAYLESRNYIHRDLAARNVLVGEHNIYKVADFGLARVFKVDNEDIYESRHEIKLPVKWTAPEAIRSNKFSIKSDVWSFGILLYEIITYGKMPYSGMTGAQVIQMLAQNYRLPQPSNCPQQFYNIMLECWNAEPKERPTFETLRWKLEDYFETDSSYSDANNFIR

[14] = molecular target: Vascular endothelial growth factor receptor 2 (Homo sapiens) (UniProt P35968); assay: Inhibition of human VEGFR2 assessed as remaining enzyme activity at 1 uM
Chain of Vascular endothelial growth factor receptor 2 (Homo sapiens) (P35968 whole entry): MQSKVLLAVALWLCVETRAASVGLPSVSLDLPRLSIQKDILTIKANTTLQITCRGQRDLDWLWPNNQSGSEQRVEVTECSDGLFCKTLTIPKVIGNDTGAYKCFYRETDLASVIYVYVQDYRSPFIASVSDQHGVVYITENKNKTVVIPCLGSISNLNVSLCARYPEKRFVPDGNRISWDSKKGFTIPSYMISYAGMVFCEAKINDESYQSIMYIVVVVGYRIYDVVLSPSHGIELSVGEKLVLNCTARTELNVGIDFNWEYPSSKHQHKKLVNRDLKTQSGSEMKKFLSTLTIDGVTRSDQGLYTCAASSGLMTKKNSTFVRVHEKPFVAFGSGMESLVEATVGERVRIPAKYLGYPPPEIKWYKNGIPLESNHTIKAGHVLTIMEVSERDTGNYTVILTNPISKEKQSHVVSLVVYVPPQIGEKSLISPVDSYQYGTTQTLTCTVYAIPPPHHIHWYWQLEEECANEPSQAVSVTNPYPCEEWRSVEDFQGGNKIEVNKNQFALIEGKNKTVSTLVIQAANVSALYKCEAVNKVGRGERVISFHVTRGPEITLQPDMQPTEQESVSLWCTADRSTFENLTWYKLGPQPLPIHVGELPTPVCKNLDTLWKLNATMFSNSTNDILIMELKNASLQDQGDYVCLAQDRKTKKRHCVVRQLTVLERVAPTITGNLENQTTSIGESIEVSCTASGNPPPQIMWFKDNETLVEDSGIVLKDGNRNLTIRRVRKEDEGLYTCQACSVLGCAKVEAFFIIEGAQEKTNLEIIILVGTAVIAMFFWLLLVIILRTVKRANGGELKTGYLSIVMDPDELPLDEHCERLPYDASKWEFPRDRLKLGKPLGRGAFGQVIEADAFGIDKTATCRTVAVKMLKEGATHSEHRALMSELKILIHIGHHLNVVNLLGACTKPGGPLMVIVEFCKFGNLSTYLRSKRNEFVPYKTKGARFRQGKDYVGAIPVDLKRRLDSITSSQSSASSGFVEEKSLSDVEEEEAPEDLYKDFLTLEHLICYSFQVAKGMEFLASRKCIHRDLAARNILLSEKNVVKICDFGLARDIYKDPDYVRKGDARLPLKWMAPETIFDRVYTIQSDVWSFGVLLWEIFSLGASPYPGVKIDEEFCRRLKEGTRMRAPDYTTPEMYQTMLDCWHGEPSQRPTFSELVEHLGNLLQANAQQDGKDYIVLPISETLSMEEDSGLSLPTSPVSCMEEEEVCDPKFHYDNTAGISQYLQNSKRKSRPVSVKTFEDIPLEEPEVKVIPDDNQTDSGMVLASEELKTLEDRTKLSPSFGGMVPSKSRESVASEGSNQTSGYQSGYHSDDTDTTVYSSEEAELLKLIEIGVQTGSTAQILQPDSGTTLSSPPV

[15] = molecular target: T2, Homeodomain-interacting protein kinase 4 (Homo sapiens) (UniProt Q8NE63); assay: Inhibition of human HIPK4 assessed as remaining enzyme activity at 1 uM
T2 sequence (whole entry): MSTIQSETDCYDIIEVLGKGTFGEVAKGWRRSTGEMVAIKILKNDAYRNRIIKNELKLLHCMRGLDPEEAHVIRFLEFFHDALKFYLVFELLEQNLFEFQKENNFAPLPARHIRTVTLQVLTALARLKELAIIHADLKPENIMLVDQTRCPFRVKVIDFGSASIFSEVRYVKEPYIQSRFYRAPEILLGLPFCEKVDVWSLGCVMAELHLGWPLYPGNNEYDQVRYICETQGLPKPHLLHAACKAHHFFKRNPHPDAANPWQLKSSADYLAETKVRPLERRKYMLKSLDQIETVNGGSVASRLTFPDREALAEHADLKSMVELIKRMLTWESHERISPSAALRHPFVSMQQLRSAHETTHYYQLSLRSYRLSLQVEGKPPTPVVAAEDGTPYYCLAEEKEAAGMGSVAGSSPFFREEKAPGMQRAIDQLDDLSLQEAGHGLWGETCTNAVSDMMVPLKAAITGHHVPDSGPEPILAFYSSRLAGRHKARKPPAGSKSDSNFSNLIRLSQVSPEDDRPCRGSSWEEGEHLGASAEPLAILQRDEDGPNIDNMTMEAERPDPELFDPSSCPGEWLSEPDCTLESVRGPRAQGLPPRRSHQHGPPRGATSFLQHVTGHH

[16] = molecular target: Homeodomain-interacting protein kinase 2 (Homo sapiens) (UniProt Q9H2X6); assay: Inhibition of human HIPK2 assessed as remaining enzyme activity at 1 uM
[17] = molecular target: Platelet-derived growth factor receptor beta (Homo sapiens) (UniProt P09619); assay: Inhibition of human PDGFRbeta assessed as remaining enzyme activity at 1 uM
[18] = molecular target: Tyrosine-protein kinase ABL1 (Homo sapiens) (UniProt P00519); assay: Inhibition of human ABL assessed as remaining enzyme activity at 0.01 uM
[19] = molecular target: Macrophage colony-stimulating factor 1 receptor (Homo sapiens) (UniProt P07333); assay: Inhibition of human FMS assessed as remaining enzyme activity at 0.1 uM
[20] = molecular target: Receptor-type tyrosine-protein kinase FLT3 (Homo sapiens) (UniProt P36888); assay: Inhibition of human FLT3 assessed as remaining enzyme activity at 1 uM
[21] = molecular target: Vascular endothelial growth factor receptor 2 (Homo sapiens) (UniProt P35968); assay: Inhibition of human VEGFR2 assessed as remaining enzyme activity at 0.01 uM
[22] = molecular target: Ephrin type-A receptor 2 (Homo sapiens) (UniProt P29317); assay: Inhibition of human EphA2 assessed as remaining enzyme activity at 0.01 uM
[23] = molecular target: Tyrosine-protein kinase FRK (Homo sapiens) (UniProt P42685); assay: Inhibition of human PTK5 assessed as remaining enzyme activity at 0.1 uM
[24] = molecular target: Mitogen-activated protein kinase 14 (Homo sapiens) (UniProt Q16539); assay: Inhibition of human p38alpha assessed as remaining enzyme activity at 0.1 uM
[25] = molecular target: Tyrosine-protein kinase ABL1 (Homo sapiens) (UniProt P00519); assay: Inhibition of human ABL assessed as remaining enzyme activity at 0.1 uM
[26] = molecular target: Tyrosine-protein kinase Blk (Mus musculus) (UniProt P16277); assay: Inhibition of mouse BLK assessed as remaining enzyme activity at 0.1 uM

Compound CNC(=O)c1cc(Oc2ccc(NC(=O)Nc3ccc(Cl)c(C(F)(F)F)c3)c(F)c2)ccn1 has an Activity [1] of 22%, an Activity [2] of -7% and an Activity [3] of 10%. It also gave an Activity [4] of 11%, an Activity [5] of 3% and an Activity [6] of 8%. For the same compound, the Activity [7] was 92%, the Activity [8] was 100% and the Activity [9] was 43%. For the same compound, the Activity [10] was 1%, the Activity [11] was 46% and the Activity [12] was 68%. For the same compound, the Activity [13] was 3%, the Activity [14] was 17% and the Activity [15] was -1%. It also gave an Activity [16] of 13%, an Activity [17] of 55% and an Activity [18] of 79%. For the same compound, the Activity [19] was 36%, the Activity [20] was 31% and the Activity [21] was 68%. For the same compound, the Activity [22] was 90%, the Activity [23] was 18% and the Activity [24] was 52%. For the same compound, the Activity [25] was 49% and the Activity [26] was 45%.

Source: ChEMBL document CHEMBL4725218, “Deep Learning Enhancing Kinome-Wide Polypharmacology Profiling: Model Construction and Experiment Validation” (J Med Chem, 2020)
